Measurements reported in patent US11000516B2 (priority 2015, dated 2021).

Experiments:
[1] = CELADEN study regimen, human; cited from earlier work
[2] = mice, celgosivir 50 mg/kg BID; cited from earlier work
[3] = test system: EDEN1 (clinical DENV1 isolate); assay: Antiviral effect in HuH-7 cells, plaque assay of supernatant 48 h pi; type: cell-based; settings: read-out: EC50
Description: (§1) Cells were infected with DENV strains for 1 hour at 37° C. and washed once with culture media. […] The supernatants were subjected to standard plaque assay and the EC50 values were determined using the GraphPad Prism software.
(§2) NITD008, an adenosine analog inhibitor of DENV polymerase (Yin et al., 2009) was used as a positive control.

[4] = test system: EDEN2 (clinical DENV2 isolate); assay: as above; type: cell-based; settings: HuH-7, EDEN2, MOI 0.3; read-out: EC50
Description: as §1, §2

[5] = test system: S221 (mouse-adapted DENV2 strain); assay: as above; type: cell-based; settings: HuH-7, S221, MOI 0.3; read-out: EC50
Description: as §1, §2

[6] = test system: EDEN1 (clinical DENV1 isolate); assay: Antiviral effect in BHK-21 cells, plaque assay of supernatant 48 h pi; type: cell-based; settings: read-out: EC50
Description: as §1, §2

[7] = test system: EDEN2 (clinical DENV2 isolate); assay: as above; type: cell-based; settings: BHK-21, EDEN2, MOI 0.3; read-out: EC50
Description: as §1, §2

[8] = test system: S221 (mouse-adapted DENV2 strain); assay: as above; type: cell-based; settings: BHK-21, S221, MOI 0.3; read-out: EC50
Description: as §1, §2

[9] = test system: EDEN1 (clinical DENV1 isolate); assay: Antiviral effect in Vero cells, plaque assay of supernatant 48 h pi; type: cell-based
Description: as §1, §2

[10] = test system: EDEN2 (clinical DENV2 isolate); assay: as above; type: cell-based; settings: EDEN2, MOI 0.3, read-out: EC50
Description: as §1, §2

[11] = test system: S221 (mouse-adapted DENV2 strain); assay: as above; type: cell-based; settings: S221, MOI 0.3, read-out: EC50
Description: as §1, §2

[12] = test system: EDEN1 (clinical DENV1 isolate); assay: Ab-mediated infection of THP-1 cells with enhancing concentration of 4G2 Ab; type: cell-based; settings: THP-1 with 4G2 Ab, EDEN1, MOI 2, single experiment; read-out: EC50
Description: as §1, §2

[13] = test system: EDEN2 (clinical DENV2 isolate); assay: as above; type: cell-based; settings: THP-1 with 4G2 Ab, EDEN2, MOI 50, single experiment; read-out: EC50
Description: as §1, §2

[14] = test system: S221 (mouse-adapted DENV2 strain); assay: as above; type: cell-based; settings: THP-1 with 4G2 Ab, S221, MOI 2, single experiment; read-out: EC50
Description: as §1, §2

[15] = test system: EDEN1; assay: Non-lethal viremia mouse model; type: in vivo, mice
Description: (§3) Mice were inoculated i.v. with EDEN1 (7×10^7 pfu) or EDEN2 (1×10^8 pfu). […] Average viral copy numbers on day 1 and 2 were measured using mixed serum of each group. […] A P value less than 0.05 was considered significant (*P<0.05). The number of mice per group is 6. […] Average viral copy numbers on days 4 and 5 were measured using mixed serum of each group. […] The virological log reduction (VLR) from day 3 to day 6 was also shown as the mean value and standard deviations. The number of mice per group is 6.
(§4) Since dengue fever patients in general present at a clinic when viremia is at a peak level (Low et al., 2014; Nguyen et al., 2013; Tricou et al., 2010), we next compared the 2 different dosing regimens; one started at the time of infection and another started at the time of peak viremia (on day 3 pi) similar to human situation (FIG. 4A). In this experiment, we used a non-lethal viremia mouse model, which permits the tracking of viremia kinetics for a longer period of time (FIG. 1B).

[16] = test system: EDEN2; assay: Non-lethal viremia mouse model; type: in vivo, mice
Description: as §3, §4

O[C@H]1[C@H](O)[C@@H](O)CN2CC[C@H](O)[C@H]12 [castanospermine]
steady state maximum castanospermine concentration [1]: 5100 nanograms/ml
steady state minimum castanospermine concentration [2]: 400 nanograms/ml

C#C[C@@]1(O)[C@H](O)[C@@H](CO)O[C@H]1n1ccc2c(N)ncnc21 [NITD008, reference compound]
EC50 ([3]; HuH-7, EDEN1, MOI 0.01): 356 nM
EC50 ([3]; HuH-7, EDEN1, MOI 0.3): 684 nM
EC50 [4]: 98 nM
EC50 [5]: 74 nM
EC50 ([6]; BHK-21, EDEN1, MOI 0.01): 608 nM
EC50 ([6]; BHK-21, EDEN1, MOI 0.3): 865 nM
EC50 [7]: 354 nM
EC50 [8]: 509 nM
EC50 ([9]; EDEN1, MOI 0.01, read-out: EC50): 910 nM
EC50 ([9]; EDEN1, MOI 0.3, read-out: EC50): 2820 nM
EC50 [10]: 1170 nM
EC50 [11]: 1480 nM
EC50 [12]: 358 nM
EC50 [13]: 679 nM
EC50 [14]: 390 nM
viremia reduction on day 3 pi ([15]; EDEN1, NITD008 25 mg/kg BID from day 0): 3.5 fold
VLR from day 3 to day 6 ([15]; EDEN1, NITD008 25 mg/kg BID started on day 3): 0.96
viremia reduction on day 3 pi ([16]; EDEN2, NITD008 25 mg/kg BID from day 0): 4.9 fold
VLR from day 3 to day 6 ([16]; EDEN2, NITD008 25 mg/kg BID started on day 3): 2.24
